Measured values as given in PubChem BioAssay AID330 (DTP/NCI, 2004).
Where “and” joins values, the source holds several entries; their conditions need not be identical. Equal values may be shown once. Inconclusive results and toxic doses are left out.

System: P388 leukemia ip, CD2F1 mice, survival T/C
Assay: NCI In Vivo Anticancer Drug Screen. Data for tumor model P388 Leukemia (intraperitoneal) in CD2F1 (CDF1) mice
Conditions: endpoint: median survival time, higher = longer survival
Method in brief: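 Mice carrying the transplanted tumor received test compound or vehicle. Survival was recorded in each group, and the value is the treated-group measurement divided by that of the vehicle-treated control group.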

[1] = dose: 6.25 mg/kg/injection, schedule: Q01DX009 (ip), vehicle: saline with Tween-80
[2] = dose: 25.0 mg/kg/injection, schedule: Q01DX009 (ip), vehicle: saline with Tween-80
[3] = dose: 50.0 mg/kg/injection, schedule: Q01DX009 (ip), vehicle: saline with Tween-80
[4] = dose: 100.0 mg/kg/injection, schedule: Q01DX009 (ip), vehicle: saline with Tween-80
[5] = dose: 50.0 mg/kg/injection, schedule: Q01DX009 (ip), vehicle: saline
[6] = dose: 100.0 mg/kg/injection, schedule: Q01DX009 (ip), vehicle: saline
[7] = dose: 50.0 mg/kg/injection, schedule: Q01DX009 (ip), vehicle: Klucel (hydroxypropylcellulose) (HPC)
[8] = dose: 100.0 mg/kg/injection, schedule: Q01DX009 (ip), vehicle: Klucel (hydroxypropylcellulose) (HPC)
[9] = dose: 200.0 mg/kg/injection, schedule: Q01DX009 (ip), vehicle: saline with Tween-80
[10] = dose: 60.0 mg/kg/injection, schedule: Q01DX005 (ip), vehicle: Klucel (hydroxypropylcellulose) (HPC)
[11] = dose: 120.0 mg/kg/injection, schedule: Q01DX005 (ip), vehicle: Klucel (hydroxypropylcellulose) (HPC)
[12] = dose: 240.0 mg/kg/injection, schedule: Q01DX005 (ip), vehicle: Klucel (hydroxypropylcellulose) (HPC)
[13] = dose: 50.0 mg/kg/injection, schedule: Q01DX005 (ip), vehicle: saline with Tween-80
[14] = dose: 100.0 mg/kg/injection, schedule: Q01DX005 (ip), vehicle: saline with Tween-80
[15] = dose: 200.0 mg/kg/injection, schedule: Q01DX005 (ip), vehicle: saline with Tween-80
[16] = dose: 400.0 mg/kg/injection, schedule: Q01DX009 (ip), vehicle: saline with Tween-80

For `O=C(NCCCCCCCCCCNC(=O)N1CC1)N1CC1`, the T/C (dose: 0.25 mg/kg/injection, schedule: Q04DX003 (ip), vehicle: saline with Tween-80) was 104 % of control, the T/C (dose: 0.5 mg/kg/injection, schedule: Q04DX003 (ip), vehicle: saline with Tween-80) was 108 % of control and the T/C (dose: 1.56 mg/kg/injection, schedule: Q01DX009 (ip), vehicle: saline with Tween-80) was 165 % of control. For the same molecule, the T/C (dose: 2.0 mg/kg/injection, schedule: Q04DX003 (ip), vehicle: saline with Tween-80) was 159 % of control, the T/C (dose: 3.0 mg/kg/injection, schedule: Q04DX003 (ip), vehicle: saline with Tween-80) was 209 % of control and the T/C (dose: 3.13 mg/kg/injection, schedule: Q04DX003 (ip), vehicle: saline with Tween-80) was 185 % of control. The T/C (dose: 4.5 mg/kg/injection, schedule: Q04DX003 (ip), vehicle: saline with Tween-80) was 204 % of control, the T/C [1] was 95 % of control and the T/C (dose: 6.25 mg/kg/injection, schedule: Q04DX003 (ip), vehicle: saline with Tween-80) was 150 % of control.
For `CN1CCCN(C)C1c1ccc(Cl)cc1`, the T/C (dose: 12.5 mg/kg/injection, schedule: Q01DX009 (ip), vehicle: saline sonified) was 90 % of control and the T/C (dose: 25.0 mg/kg/injection, schedule: Q01DX009 (ip), vehicle: saline sonified) was 90 % of control.
With `Nc1nc(N)nc(N2CCCC2)n1` the T/C [2] was 101 % of control, the T/C [3] was 97 % of control and the T/C [4] was 92 % of control.
`O=C1CP(=O)(O)CC2=C1CCC2` was tested, and the T/C (dose: 25.0 mg/kg/injection, schedule: Q01DX009 (ip), vehicle: saline) was 96 % of control, the T/C [5] was 96 % of control and the T/C [6] was 100 % of control.
In the case of `O=c1ssc(=Nc2ccccc2)n1-c1ccccc1`, the T/C [7] is reported as 109 % of control, the T/C [8] is reported as 116 % of control and 118 % of control and the T/C (dose: 200.0 mg/kg/injection, schedule: Q01DX009 (ip), vehicle: Klucel (hydroxypropylcellulose) (HPC)) is reported as 113 % of control and 117 % of control. The T/C (dose: 400.0 mg/kg/injection, schedule: Q01DX009 (ip), vehicle: Klucel (hydroxypropylcellulose) (HPC)) was 124 % of control.
With `C=Cn1c([N+](=O)[O-])cnc1/C=C/c1ccc(C(=O)OCCN2CCCCC2)cc1` the T/C (dose: 100.0 mg/kg/injection, schedule: Q04DX002 (ip), vehicle: saline with Tween-80) was 90 % of control, the T/C (dose: 100.0 mg/kg/injection, schedule: Q04DX003 (ip), vehicle: Klucel (hydroxypropylcellulose) (HPC)) was 105 % of control and the T/C (dose: 200.0 mg/kg/injection, schedule: Q04DX002 (ip), vehicle: saline with Tween-80) was 90 % of control. For the same molecule, the T/C (dose: 200.0 mg/kg/injection, schedule: Q04DX003 (ip), vehicle: Klucel (hydroxypropylcellulose) (HPC)) was 102 % of control, the T/C (dose: 400.0 mg/kg/injection, schedule: Q04DX002 (ip), vehicle: saline with Tween-80) was 90 % of control and the T/C (dose: 400.0 mg/kg/injection, schedule: Q04DX003 (ip), vehicle: Klucel (hydroxypropylcellulose) (HPC)) was 102 % of control.
In the case of `C=C(OP(=O)(OC)OC)Sc1ccccc1C`, the T/C (dose: 0.04 mg/kg/injection, schedule: Q01DX005 (ip), vehicle: Klucel (hydroxypropylcellulose) (HPC)) is reported as 105 % of control, the T/C (dose: 0.09 mg/kg/injection, schedule: Q01DX005 (ip), vehicle: Klucel (hydroxypropylcellulose) (HPC)) is reported as 100 % of control and the T/C (dose: 0.18 mg/kg/injection, schedule: Q01DX005 (ip), vehicle: Klucel (hydroxypropylcellulose) (HPC)) is reported as 106 % of control. The T/C (dose: 0.37 mg/kg/injection, schedule: Q01DX005 (ip), vehicle: Klucel (hydroxypropylcellulose) (HPC)) was 92 % of control, the T/C (dose: 0.75 mg/kg/injection, schedule: Q01DX005 (ip), vehicle: Klucel (hydroxypropylcellulose) (HPC)) was 100 % of control and the T/C (dose: 1.5 mg/kg/injection, schedule: Q01DX005 (ip), vehicle: Klucel (hydroxypropylcellulose) (HPC)) was 96 % of control. For the same molecule, the T/C (dose: 12.5 mg/kg/injection, schedule: Q01DX009 (ip), vehicle: Klucel (hydroxypropylcellulose) (HPC)) was 100 % of control and 97 % of control, the T/C (dose: 25.0 mg/kg/injection, schedule: Q01DX009 (ip), vehicle: Klucel (hydroxypropylcellulose) (HPC)) was 102 % of control and 116 % of control and the T/C [7] was 111 % of control and 121 % of control. For the same molecule, the T/C [8] was 105 % of control and 92 % of control.
For `O=C1C=CC(=O)N1c1ccc(I)cc1Cl`, the T/C [3] was 106 % of control, the T/C [4] was 104 % of control and the T/C [9] was 96 % of control.
For `CCOC(=O)NCC(C)(c1ccccc1)c1ccccc1`, the T/C [5] was 87 % of control, the T/C [6] was 94 % of control and the T/C (dose: 200.0 mg/kg/injection, schedule: Q01DX009 (ip), vehicle: saline) was 87 % of control.
In the case of `N#Cc1ncc(-c2ccccc2)nc1Cl`, the T/C [1] is reported as 100 % of control, the T/C (dose: 12.5 mg/kg/injection, schedule: Q01DX009 (ip), vehicle: saline with Tween-80) is reported as 104 % of control and the T/C [2] is reported as 100 % of control. For the same molecule, the T/C [3] was 110 % of control, the T/C (dose: 50.0 mg/kg/injection, schedule: Q04DX003 (ip), vehicle: saline with Tween-80) was 100 % of control and the T/C [4] was 120 % of control. For the same molecule, the T/C (dose: 100.0 mg/kg/injection, schedule: Q04DX003 (ip), vehicle: saline with Tween-80) was 105 % of control and the T/C (dose: 200.0 mg/kg/injection, schedule: Q04DX003 (ip), vehicle: saline with Tween-80) was 100 % of control.
With `Cc1ccc(O)c(CN2CCN(Cc3cc(C)ccc3O)CC2)c1` the T/C [10] was 86 % of control, the T/C [11] was 91 % of control and the T/C [12] was 88 % of control.
For `CC(C)(C)C(=O)CC(=O)C(F)(F)C(F)(F)C(F)(F)F.CC(C)(C)C(=O)CC(=O)C(F)(F)C(F)(F)C(F)(F)F.CC(C)(C)C(=O)CC(=O)C(F)(F)C(F)(F)C(F)(F)F.[Eu]`, the T/C (dose: 60.0 mg/kg/injection, schedule: Q01DX005 (ip), vehicle: Klucel + Tween-80) was 99 % of control, the T/C (dose: 120.0 mg/kg/injection, schedule: Q01DX005 (ip), vehicle: Klucel + Tween-80) was 98 % of control and the T/C (dose: 240.0 mg/kg/injection, schedule: Q01DX005 (ip), vehicle: Klucel + Tween-80) was 98 % of control.
`CNc1c2ccccc2nc2ccccc12` was tested, and the T/C (dose: 12.5 mg/kg/injection, schedule: Q04DX002 (ip), vehicle: distilled water + Tween-80) was 98 % of control and the T/C (dose: 25.0 mg/kg/injection, schedule: Q04DX002 (ip), vehicle: distilled water + Tween-80) was 100 % of control.
With `COc1ccc(C2CC(C)(N3CCCC3)Oc3cc4c(cc32)OCO4)c(OC)c1` (stereo not given) the T/C [13] was 99 % of control, the T/C [14] was 96 % of control and the T/C [15] was 86 % of control.
`COC(=O)c1ccccc1NC(C)=NC(C)(C)C` was tested, and the T/C [3] was 103 % of control, the T/C [4] was 90 % of control and the T/C [9] was 90 % of control.
With `COc1ccc(N=Nc2ncc(N)nc2N)cc1` the T/C [10] was 107 % of control, the T/C [11] was 108 % of control and the T/C [12] was 96 % of control.
`O=C(Nc1cccc(Cl)c1)N1CCNC1=S` was tested, and the T/C [7] was 102 % of control and the T/C [8] was 104 % of control.
`OC1(c2ccccc2)CCCCCC1` was tested, and the T/C [2] was 113 % of control, the T/C [3] was 106 % of control and the T/C [4] was 106 % of control and 108 % of control.
In the case of `CCOC(C)(c1ccc(Cl)cc1)C1CCNCC1` (stereo not given), the T/C [3] is reported as 101 % of control and the T/C [4] is reported as 119 % of control.
In the case of `COc1ccc([N+](=O)[O-])cc1Br`, the T/C [4] is reported as 100 % of control, the T/C [9] is reported as 100 % of control and the T/C [16] is reported as 100 % of control.
`Cc1ccc(-c2cc(N)n(-c3nnc(-c4ccccc4)c(-c4ccccc4)n3)n2)cc1` was tested, and the T/C [13] was 105 % of control, the T/C [14] was 105 % of control and the T/C [15] was 93 % of control.
`NC(CSC(c1ccccc1)c1ccccc1)C(=O)NCC(=O)O` (stereo not given) was tested, and the T/C (dose: 50.0 mg/kg/injection, schedule: Q01DX005 (ip), vehicle: Klucel (hydroxypropylcellulose) (HPC)) was 99 % of control, the T/C (dose: 100.0 mg/kg/injection, schedule: Q01DX005 (ip), vehicle: Klucel (hydroxypropylcellulose) (HPC)) was 99 % of control and the T/C (dose: 200.0 mg/kg/injection, schedule: Q01DX005 (ip), vehicle: Klucel (hydroxypropylcellulose) (HPC)) was 104 % of control.
For `COc1ccc(Cl)c2c(N=Nc3ccccc3[N+](=O)[O-])c(O)[nH]c12`, the T/C (dose: 15.0 mg/kg/injection, schedule: Q01DX005 (ip), vehicle: saline with Tween-80) was 103 % of control, the T/C (dose: 30.0 mg/kg/injection, schedule: Q01DX005 (ip), vehicle: saline with Tween-80) was 99 % of control and the T/C (dose: 60.0 mg/kg/injection, schedule: Q01DX005 (ip), vehicle: saline with Tween-80) was 95 % of control. For the same molecule, the T/C (dose: 240.0 mg/kg/injection, schedule: Q01DX005 (ip), vehicle: saline with Tween-80) was 87 % of control.
`N#C/C(=C\c1cccs1)c1ccccc1` was tested, and the T/C [3] was 102 % of control, the T/C [4] was 103 % of control and the T/C [9] was 100 % of control. For the same molecule, the T/C [16] was 105 % of control.
In the case of `CCOC1=C(C#N)C(=O)NC2OC(CO)C(O)C2O1` (stereo not given), the T/C [10] is reported as 104 % of control, the T/C [11] is reported as 104 % of control and the T/C [12] is reported as 106 % of control.
